Test systems include DU-145; CAKI-1; RXF 393; HOP-62; IGROV-1; U-251; SNB-19; OVCAR-8; MCF7; NCI/ADR-RES; 786-0; OVCAR-4; NCI-H23; SF-295; PC-3; OVCAR-5; EKVX; ACHN; SF-539; UACC-257.
Assay in all cases: DTP human tumour cell line panel, 48 h

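48-hour exposure; five concentrations; linearly interpolated endpoints. The concentration for 50% growth inhibition is given as GI50.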 The source made the active and inactive calls. No stated cut-off is given here; in the data, active = GI50 up to about 1.1 µM and inactive = higher.

With `Cc1ccc2oc(=O)c3c(O)c4cccc(OC5OC(C)C6O[C@@H](c7ccccc7)OC6C5OC5OC(C)C(O)C(O)C5O)c4c4oc(=O)c1c2c34` (stereo partly drawn), the GI50 was 0.174 µM (active) in the assay with DU-145; 0.138 µM (active) with CAKI-1; 0.187 µM (active) in the assay with RXF 393; 0.0452 µM (active) in the assay with HOP-62; 0.0264 µM (active) with IGROV-1; 0.0535 µM (active) in the assay with U-251. For the same molecule, the 50% growth inhibitory concentration (GI50) in the assay with SNB-19 was 0.334 µM (active); in the assay on OVCAR-8 it was < 0.0215 µM (active); in the assay with MCF7, 0.0324 µM (active); in the assay with NCI/ADR-RES, 3.66 µM (inactive); with 786-0 it was 0.0389 µM (active); in the assay on OVCAR-4 it was 0.32 µM (active). Besides, the GI50 with NCI-H23 is 0.0492 µM (active); in the assay on SF-295, 0.0303 µM (active); in the assay with PC-3 it was 0.0955 µM (active); with OVCAR-5, 0.162 µM (active); in the assay on EKVX it was 0.461 µM (active); with ACHN it was 0.027 µM (active). Further, in the assay with SF-539, the 50% growth inhibitory concentration (GI50) was 0.0571 µM (active).

As for `CN(C)CC1CC/C(=C\c2ccc3c(c2)OCO3)C1=O` (stereo not drawn), the GI50 was 7.66 µM (inactive) in the assay on DU-145; 8.89 µM (inactive) in the assay on CAKI-1; 15.7 µM (inactive) in the assay with RXF 393; > 51.6 µM (inactive) with HOP-62; 8.97 µM (inactive) in the assay on UACC-257; 9.75 µM (inactive) in the assay on IGROV-1. Besides, the GI50 is 18.3 µM (inactive) in the assay on U-251; 16.2 µM (inactive) in the assay with SNB-19; 8.61 µM (inactive) in the assay on OVCAR-8; 3.96 µM (inactive) with MCF7; 2.79 µM (inactive) with NCI/ADR-RES; 6.85 µM (inactive) with 786-0. Besides, the GI50 in the assay with OVCAR-4 was 9.29 µM (inactive); with NCI-H23 it was 9.62 µM (inactive); in the assay on SF-295 it was 23.1 µM (inactive); with PC-3 it was 13.6 µM (inactive); in the assay on OVCAR-5 it was 18 µM (inactive); in the assay on EKVX, 18.9 µM (inactive). Further, the results for the GI50 with ACHN and in the assay on SF-539 were 13.9 µM (inactive) and 16.3 µM (inactive), respectively.

As to `Cc1ccc(S(=O)(=O)OI(O)CC(F)(F)F)cc1`, the GI50 with DU-145, in the assay on CAKI-1, in the assay on RXF 393, in the assay on HOP-62, in the assay with UACC-257 and with IGROV-1 was > 100 µM (inactive) throughout. Besides, the GI50 in the assay with U-251, in the assay with OVCAR-8, in the assay on MCF7, in the assay on NCI/ADR-RES, in the assay on 786-0 and in the assay with OVCAR-4 was > 100 µM (inactive) throughout. In addition, the GI50 in the assay with NCI-H23, in the assay on SF-295, with PC-3, in the assay on OVCAR-5, in the assay on EKVX and in the assay on ACHN was > 100 µM (inactive) each time. Moreover, the GI50 in the assay on SF-539 was > 100 µM (inactive).

For the molecule `OC(Cc1cnnc2ccccc12)C(Cl)(Cl)Cl` (stereo not drawn), the GI50 with DU-145, in the assay with CAKI-1, in the assay on RXF 393, in the assay on HOP-62, in the assay with UACC-257 and with IGROV-1 was > 10 µM (inactive) in each case. Also, the GI50 in the assay on U-251, with SNB-19, in the assay with OVCAR-8, with MCF7, in the assay on NCI/ADR-RES and in the assay with 786-0 was > 10 µM (inactive) in each case. Moreover, the GI50 in the assay with OVCAR-4, in the assay on NCI-H23, in the assay with SF-295, in the assay with PC-3, in the assay on EKVX and with ACHN was > 10 µM (inactive) in each case. In the assay on SF-539, the GI50 was > 10 µM (inactive).

In the case of `CCOC(=O)C1(F)S(=O)(=O)OCCOS1(=O)=O`, the GI50 with DU-145, in the assay on CAKI-1, with RXF 393, in the assay on HOP-62, in the assay on UACC-257 and with U-251 was > 100 µM (inactive) in each case. The GI50 in the assay on SNB-19, with OVCAR-8, with MCF7, with NCI/ADR-RES, in the assay with 786-0 and in the assay with OVCAR-4 was > 100 µM (inactive) in each case. Moreover, the GI50 in the assay on NCI-H23, in the assay with SF-295, with PC-3, with OVCAR-5, with EKVX and with ACHN was > 100 µM (inactive) each time. Besides, the GI50 with SF-539 was > 100 µM (inactive).

Consider `O=C(O)CNc1ccc2c(c1)Cc1cc(Br)ccc1-2`, for which the GI50 was 25.9 µM (inactive) in the assay on DU-145; 19.5 µM (inactive) in the assay on CAKI-1; 31 µM (inactive) in the assay on RXF 393; > 44.6 µM (inactive) with HOP-62; 22.8 µM (inactive) in the assay with UACC-257; 18 µM (inactive) with IGROV-1. Besides, the GI50 with U-251 is 26.6 µM (inactive); with SNB-19 it was 24.3 µM (inactive); in the assay with OVCAR-8, 23.9 µM (inactive); with MCF7, > 38.4 µM (inactive); in the assay on NCI/ADR-RES it was 25.6 µM (inactive); with 786-0, 39.6 µM (inactive). Also, the GI50 with OVCAR-4 is 20.1 µM (inactive); in the assay on NCI-H23 it was 18 µM (inactive); with SF-295, 24.5 µM (inactive); with PC-3, 27.2 µM (inactive); with OVCAR-5, 27.5 µM (inactive); in the assay with EKVX, 5.2 µM (inactive). The figures for the GI50 in the assay on ACHN and in the assay on SF-539 were 33.1 µM (inactive) and 23.7 µM (inactive), respectively.

Regarding `COc1cccc(N2C(=O)CS(=O)(=O)C2c2cccc(Oc3ccccc3)c2)c1` (stereo not drawn), the GI50 was 38.5 µM (inactive) with DU-145; 26.1 µM (inactive) in the assay with CAKI-1; 16.5 µM (inactive) in the assay with RXF 393; 25.2 µM (inactive) in the assay on HOP-62; 15.3 µM (inactive) in the assay with UACC-257; 16.7 µM (inactive) in the assay with U-251. For the same molecule, the GI50 is 27.1 µM (inactive) in the assay on SNB-19; 21.6 µM (inactive) in the assay with OVCAR-8; 3.04 µM (inactive) in the assay with MCF7; 9.42 µM (inactive) in the assay on NCI/ADR-RES; 16.9 µM (inactive) in the assay on 786-0; 28.6 µM (inactive) in the assay with OVCAR-4. For the same molecule, the GI50 in the assay on NCI-H23 was 23.4 µM (inactive); with SF-295, 16 µM (inactive); in the assay on PC-3 it was 9.98 µM (inactive); with OVCAR-5, 34 µM (inactive); in the assay with EKVX it was 17 µM (inactive); with ACHN it was 20.1 µM (inactive). In the assay with SF-539, the GI50 was 15.1 µM (inactive).

As to `O=C(O)[C@H](Cc1ccccc1)NCCN1CCC[C@H]1C(=O)O`, the GI50 in the assay on DU-145, in the assay on CAKI-1, in the assay on RXF 393, with HOP-62, in the assay with U-251 and in the assay with SNB-19 was > 100 µM (inactive) each time. Also, the GI50 with OVCAR-8 is > 100 µM (inactive); in the assay on MCF7, > 100 µM (inactive); in the assay with NCI/ADR-RES, > 100 µM (inactive); in the assay on 786-0, > 100 µM (inactive); with OVCAR-4, 3.74 µM (inactive); in the assay with NCI-H23, > 100 µM (inactive). For the same molecule, the GI50 in the assay on SF-295, in the assay with PC-3, in the assay on OVCAR-5 and in the assay on SF-539 was > 100 µM (inactive) in each case.

As to `COc1cc([C@@H]2c3cc4c(cc3[C@@H](Nc3ccc([N+](=O)[O-])cc3C(=O)c3ccccc3)[C@H]3COC(=O)[C@H]23)OCO4)cc(OC)c1OC`, the GI50 was 0.434 µM (active) with DU-145; 0.381 µM (active) in the assay on CAKI-1; 0.573 µM (active) with RXF 393; 0.282 µM (active) with HOP-62; 0.5 µM (active) in the assay with IGROV-1; 0.354 µM (active) in the assay on U-251. In addition, the GI50 with SNB-19 was 0.603 µM (active); in the assay with OVCAR-8, 0.515 µM (active); with MCF7, 0.26 µM (active); with NCI/ADR-RES, 0.587 µM (active); in the assay on 786-0, 0.425 µM (active); with OVCAR-4, > 41.8 µM (inactive). In addition, the GI50 in the assay on NCI-H23 is 0.428 µM (active); in the assay on SF-295 it was 0.196 µM (active); in the assay with PC-3, 0.344 µM (active); with OVCAR-5 it was 0.555 µM (active); with EKVX, > 100 µM (inactive); in the assay with ACHN, 0.304 µM (active). The GI50 in the assay on SF-539 was 0.201 µM (active).

Consider `COc1ccc2c(c1)-c1c(c3cc(OC)ccc3n1CCN(C)C)CC2`, for which the GI50 in the assay with DU-145 is 13.7 µM (inactive); with CAKI-1, 14.6 µM (inactive); in the assay with RXF 393, 13.5 µM (inactive); in the assay with HOP-62 it was 15.8 µM (inactive); in the assay with UACC-257, 15.6 µM (inactive); in the assay with IGROV-1, 12.1 µM (inactive). Also, the GI50 in the assay on U-251 is 11.2 µM (inactive); with OVCAR-8, 17.4 µM (inactive); in the assay on MCF7, 14.4 µM (inactive); in the assay with NCI/ADR-RES, 16.3 µM (inactive); with 786-0, 10.8 µM (inactive); in the assay with OVCAR-4, 17.1 µM (inactive). In addition, the GI50 is 15.5 µM (inactive) with NCI-H23; 17.8 µM (inactive) in the assay with SF-295; 12.6 µM (inactive) in the assay with PC-3; 15.7 µM (inactive) with OVCAR-5; 15.1 µM (inactive) in the assay on ACHN; 15.4 µM (inactive) with SF-539.

Source of the values: ChEMBL document CHEMBL1201862, “PubChem BioAssay data set” (2004).
